Assay results taken from patent USRE32300E, “Basic amino or ammonium antimicrobial agent-polyethylene glycol ester surfactant-betaine and/or amine oxide surfactant compositions and method of use thereof” (Sterling Drug Inc., priority 1985, dated 1986).

System: Staphylococcus aureus ATCC 6538
Assay: serial dilution test against Staphylococcus aureus ATCC 6538 (compatibility of antimicrobial agents with prototype vehicle)
Format: cell-based
Settings: Id expressed as free base, IVa-IVc as cation (A=Br)
Protocol: Compatability of the antimicrobial agents of Formula Id, Formula IIa, Formula IVa (A=Br), Formula IVb (A=Br) and Formula IVc (A=Br) with a prototype vehicle of the invention was tested by a serial dilution test against Staphylococcus aureus ATCC 6538. Volumes of two milliliters were used. Dilutions were in tryptosephosphate broth. Incubation was for 16-18 hours at 37° C. Growth was verified with 2,3,5-triphenyltetrazoliumchloride. The inoculum was 1.8×10^5 viable cells per tube. There follows the formula of the prototype vehicle.

| Structure (SMILES) | Minimum Inhibitory Concentration (MIC) (added vehicle 125.0 μg/ml) | Minimum Inhibitory Concentration (MIC) (added vehicle 250.0 μg/ml) | Minimum Inhibitory Concentration (MIC) (added vehicle 500.0 μg/ml) | Minimum Inhibitory Concentration (MIC) (added vehicle 2000.0 μg/ml) | Minimum Inhibitory Concentration (MIC) (added vehicle 8000.0 μg/ml) | Minimum Inhibitory Concentration (MIC) (added vehicle 0 μg/ml) | Minimum Inhibitory Concentration (MIC) (added vehicle 15.6 μg/ml) | Minimum Inhibitory Concentration (MIC) (added vehicle 31.2 μg/ml) | Minimum Inhibitory Concentration (MIC) (added vehicle 62.5 μg/ml) |
| --- | --- | --- | --- | --- | --- | --- | --- | --- | --- |
| CCCCCCCNc1cc[n+](CCCCCCCCCCCC[n+]2ccc(NCCCCCCC)cc2)cc1 [Formula IVa] | 0.10 µg/mL | 0.10 µg/mL | 0.10 µg/mL | 0.10 µg/mL | 0.10 µg/mL |  |  |  |  |
| CCCCCCCCNc1cc[n+](CCCCCCCCCC[n+]2ccc(NCCCCCCCC)cc2)cc1 [Formula IVb] | 0.5 µg/mL |  |  |  |  | 0.5 µg/mL | 0.5 µg/mL | 0.5 µg/mL | 0.5 µg/mL |
